Assay results from patent US9346786B2, “Pyrrolidine compounds” (Hoffmann-La Roche Inc., priority 2009, dated 2016).
pKi: −log10 of the molar value.

The molecules below were run against recombinant human NK3 receptor (Homo sapiens (Human), UniProt P29371) (assay: biochemical). Details: [3H]SR142801, membranes of HEK293 cells transiently expressing recombinant human NK3 receptor; read-out: Data Ki (hNK-3 receptor affinity).
Chain of recombinant human NK3 receptor (P29371 whole entry): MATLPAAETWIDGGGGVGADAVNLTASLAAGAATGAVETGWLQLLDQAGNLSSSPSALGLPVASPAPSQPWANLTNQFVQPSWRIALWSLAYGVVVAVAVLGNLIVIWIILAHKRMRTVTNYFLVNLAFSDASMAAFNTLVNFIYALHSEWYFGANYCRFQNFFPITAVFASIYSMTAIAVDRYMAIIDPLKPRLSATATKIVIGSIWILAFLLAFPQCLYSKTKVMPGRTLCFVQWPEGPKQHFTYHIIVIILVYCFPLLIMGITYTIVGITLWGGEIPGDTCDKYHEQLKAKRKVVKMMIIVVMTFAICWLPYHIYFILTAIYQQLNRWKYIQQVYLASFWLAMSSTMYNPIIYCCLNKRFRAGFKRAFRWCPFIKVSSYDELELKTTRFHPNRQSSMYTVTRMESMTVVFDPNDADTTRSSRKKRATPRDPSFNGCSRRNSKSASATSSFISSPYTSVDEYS
Assay type: binding
Description: [^3H]SR142801 Competition Binding Assay
hNK3 receptor binding experiment were performed using [^3H]SR142801 (Catalog No. TRK1035, specific activity: 74.0 Ci/mmol, Amersham, GE Healthcare UK limited, Buckinghamshire, UK) and membrane isolated from HEK293 cells transiently expressing recombinant human NK3 receptor. After thawing, the membrane homogenates were centrifuged at 48,000×g for […] at 4° C., the pellets were resuspended in the 50 mM Tris-HCl, 4 mM MnCl2, 1 μM phosphoramidon, 0.1% BSA binding buffer at pH 7.4 to a final assay concentration of 5 μg protein/well. For inhibition experiments, membranes were incubated with [^3H]SR142801 at a concentration equal to KD value of radioligand and 10 concentrations of the inhibitory compound (0.0003-10 μM) (in a total reaction volume of 500 μl) for 75 min at room temperature (RT). At the end of the incubation, membranes were filtered onto unitfilter (96-well white microplate with bonded GF/C filter preincubated 1 h in 0.3% PEI+0.3% BSA, Packard BioScience, Meriden, Conn.) with a Filtermate 196 harvester (Packard BioScience) and washed 4 times with ice-cold 50 mM Tris-HCl, pH 7.4 buffer. Nonspecific binding was measured in the presence of 10 μM SB222200 for both radioligands. The radioactivity on the filter was counted (5 min) on a Packard Top-count microplate scintillation counter with quenching correction after addition of 45 μl of microscint 40 (Canberra Packard S.A., Zürich, Switzerland) and shaking for 1 h. Inhibition curves were fitted according to the Hill equation: y=100/(1+(x/IC50)^nH), where nH=slope factor using Excel-fit 4 software (Microsoft). IC50 values were derived from the inhibition curve and the affinity constant (Ki) values were calculated using the Cheng-Prussoff equation Ki=IC50/(1+[L]/KD) where [L] is the concentration of radioligand and KD is its dissociation constant at the receptor, derived from the saturation isotherm. All experiments were performed in duplicate and the mean±standard error (SEM) of the individual Ki values was calculated.
`CCN(C(=O)Oc1ccc(F)cc1)[C@@H]1CN(C(=O)C2CCN(C(=O)[C@@H]3CC(=O)N3)CC2)C[C@H]1c1ccc(F)c(F)c1` [Example 106, {(3S,4R)-4-(3,4-Difluoro-phenyl)-1-[1-((S)-4-oxo-azetidine-2-carbonyl)-piperidine-4-carbonyl]-pyrrolidin-3-yl}-ethyl-carbamic acid 4-fluoro-phenyl ester] was tested, and the pKi was 7.18.
Molecule `CCN(C(=O)Oc1ccc(F)cc1)[C@@H]1CN(C(=O)C2CCN(C(=O)c3ccc(C(F)(F)F)cn3)CC2)C[C@H]1c1ccc(Cl)cc1` [Example 101, {(3S,4R)-4-(4-Chloro-phenyl)-1-[1-(5-trifluoromethyl-pyridine-2-carbonyl)-piperidine-4-carbonyl]-pyrrolidin-3-yl}-ethyl-carbamic acid 4-fluoro-phenyl ester] has a pKi of 7.37.
With `CCN(C(=O)Oc1ccc(F)cc1)[C@@H]1CN(C(=O)C2CCN(c3ccc(C(C)(C)O)cn3)CC2)C[C@H]1c1ccc(Cl)c(F)c1` [Example 83, {(3S,4R)-4-(4-Chloro-3-fluoro-phenyl)-1-[5′-(1-hydroxy-1-methyl-ethyl)-3,4,5,6-tetrahydro-2H-[1,2′]bipyridinyl-4-carbonyl]-pyrrolidin-3-yl}-ethyl-carbamic acid 4-fluoro-phenyl ester] the pKi was 8.42.
Work on `CCN(C(=O)Oc1ccc(F)cc1)[C@@H]1CN(C(=O)C2CCN(c3ccc(C#N)cn3)CC2)C[C@H]1c1ccc(F)cc1` [Example 35, [(3S,4R)-1-(5′-Cyano-3,4,5,6-tetrahydro-2H-[1,2′]bipyridinyl-4-carbonyl)-4-(4-fluoro-phenyl)-pyrrolidin-3-yl]-ethyl-carbamic acid 4-fluoro-phenyl ester] yielded a pKi of 8.40.
`CCN(C(=O)Oc1ccc(F)cc1)[C@@H]1CN(C(=O)C2CCN(C(=O)C3CC(F)C3)CC2)C[C@H]1c1ccc(Cl)c(F)c1` (stereo partly drawn) [Example 69, {(3S,4R)-4-(4-Chloro-3-fluoro-phenyl)-1-[1-(3-fluoro-cyclobutanecarbonyl)-piperidine-4-carbonyl]-pyrrolidin-3-yl}-ethyl-carbamic acid 4-fluoro-phenyl ester] showed a pKi of 8.70.
Work on `CCN(C(=O)Oc1ccc(F)cc1)[C@@H]1CN(C(=O)C2CCN(c3ccc(Cl)cn3)CC2)C[C@H]1c1ccc(Cl)c(Cl)c1` [Example 113, [(3S,4R)-1-(5′-Chloro-3,4,5,6-tetrahydro-2H-[1,2′]bipyridinyl-4-carbonyl)-4-(3,4-dichloro-phenyl)-pyrrolidin-3-yl]-ethyl-carbamic acid 4-fluoro-phenyl ester] yielded a pKi of 9.30.
Work on `CCN(C(=O)Oc1ccc(F)cc1)[C@@H]1CN(C(=O)C2CCN(c3ccc(C#N)cn3)CC2)C[C@H]1c1ccc(Cl)c(F)c1` [Example 40, [(3S,4R)-4-(4-Chloro-3-fluoro-phenyl)-1-(5′-cyano-3,4,5,6-tetrahydro-2H-[1,2′]bipyridinyl-4-carbonyl)-pyrrolidin-3-yl]-ethyl-carbamic acid 4-fluoro-phenyl ester] yielded a pKi of 9.15.
Work on `CCN(C(=O)Oc1ccc(F)cc1)[C@@H]1CN(C(=O)C2CCN(S(C)(=O)=O)CC2)C[C@H]1c1ccc(Cl)c(F)c1` [Example 81, [(3S,4R)-4-(4-Chloro-3-fluoro-phenyl)-1-(1-methanesulfonyl-piperidine-4-carbonyl)-pyrrolidin-3-yl]-ethyl-carbamic acid 4-fluoro-phenyl ester] yielded a pKi of 7.54.
Work on `CCN(C(=O)Oc1ccc(F)cc1)[C@@H]1CN(C(=O)C2CCN(C(C)=O)CC2)C[C@H]1c1ccc(Cl)c(F)c1` [Example 80, [(3S,4R)-1-(1-Acetyl-piperidine-4-carbonyl)-4-(4-chloro-3-fluoro-phenyl)-pyrrolidin-3-yl]-ethyl-carbamic acid 4-fluoro-phenyl ester] yielded a pKi of 8.70.
`CCN(C(=O)Oc1ccc(F)cc1)[C@@H]1CN(C(=O)C2CCN(c3ccc(F)cn3)CC2)C[C@H]1c1ccc(F)c(Cl)c1` [Example 117, [(3S,4R)-4-(3-Chloro-4-fluoro-phenyl)-1-(5′-fluoro-3,4,5,6-tetrahydro-2H-[1,2′]bipyridinyl-4-carbonyl)-pyrrolidin-3-yl]-ethyl-carbamic acid 4-fluoro-phenyl ester] showed a pKi of 8.48.
`CCN(C(=O)Oc1ccc(F)cc1)[C@@H]1CN(C(=O)C2CCN(c3ccc(S(C)(=O)=O)cn3)CC2)C[C@H]1c1ccc(F)c(F)c1` [Example 64, [(3S,4R)-4-(3,4-Difluoro-phenyl)-1-(5′-methanesulfonyl-3,4,5,6-tetrahydro-2H-[1,2′]bipyridinyl-4-carbonyl)-pyrrolidin-3-yl]-ethyl-carbamic acid 4-fluoro-phenyl ester] showed a pKi of 8.30.
`CCN(C(=O)Oc1ccc(F)cc1)[C@@H]1CN(C(=O)C2CCN(C(=O)C3(C)CC3)CC2)C[C@H]1c1ccc(F)c(F)c1` [Example 52, {(3S,4R)-4-(3,4-Difluoro-phenyl)-1-[1-(1-methyl-cyclopropanecarbonyl)-piperidine-4-carbonyl]-pyrrolidin-3-yl}-ethyl-carbamic acid 4-fluoro-phenyl ester] was tested, and the pKi was 7.82.

Same assay, conditions: read-out: Data Ki (hNK-3 receptor affinity)
In the case of `CCN(C(=O)Oc1ccc(F)cc1)[C@@H]1CN(C(=O)C2CCN(C(=O)c3ccc(F)cc3)CC2)C[C@H]1c1ccc(Cl)c(F)c1` [Example 77, {(3S,4R)-4-(4-Chloro-3-fluoro-phenyl)-1-[1-(4-fluoro-benzoyl)-piperidine-4-carbonyl]-pyrrolidin-3-yl}-ethyl-carbamic acid 4-fluoro-phenyl ester], the pKi was 8.40.
`CCN(C(=O)Oc1ccc(F)cc1)[C@@H]1CN(C(=O)C2CCN(c3cc(C#N)ccn3)CC2)C[C@H]1c1ccc(Cl)c(F)c1` [Example 45, [(3S,4R)-4-(4-Chloro-3-fluoro-phenyl)-1-(4′-cyano-3,4,5,6-tetrahydro-2H-[1,2′]bipyridinyl-4-carbonyl)-pyrrolidin-3-yl]-ethyl-carbamic acid 4-fluoro-phenyl ester] showed a pKi of 8.52.
Molecule `CCN(C(=O)Oc1ccc(F)cc1)[C@H]1CN(C(=O)C2CCN(C(=O)C3(C)CC3)CC2)C[C@@H]1c1ccc(Cl)c(Cl)c1` [Example 6, {(3R,4S)-4-(3,4-Dichloro-phenyl)-1-[1-(1-methyl-cyclopropanecarbonyl)-piperidine-4-carbonyl]-pyrrolidin-3-yl}-ethyl-carbamic acid 4-fluoro-phenyl ester] has a pKi of 7.21.
For `CCN(C(=O)Oc1ccc(F)cc1)[C@@H]1CN(C(=O)C2CCN(c3ccc(C)cn3)CC2)C[C@H]1c1ccc(F)c(F)c1` [Example 55, [(3S,4R)-4-(3,4-Difluoro-phenyl)-1-(5′-methyl-3,4,5,6-tetrahydro-2H-[1,2′]bipyridinyl-4-carbonyl)-pyrrolidin-3-yl]-ethyl-carbamic acid 4-fluoro-phenyl ester], the pKi was 8.05.
For `CCN(C(=O)Oc1ccc(F)cc1)[C@@H]1CN(C(=O)C2CCN(c3ccc(C(C)O)cn3)CC2)C[C@H]1c1ccc(Cl)cc1` (stereo partly drawn) [Example 108, {(3S,4R)-4-(4-Chloro-phenyl)-1-[5′-(1-hydroxy-ethyl)-3,4,5,6-tetrahydro-2H-[1,2]bipyridinyl-4-carbonyl]-pyrrolidin-3-yl}-ethyl-carbamic acid 4-fluoro-phenyl ester], the pKi was 8.33.
`CCN(C(=O)Oc1ccc(F)cc1)[C@@H]1CN(C(=O)C2CCN(C(=O)C3(COC)CC3)CC2)C[C@H]1c1ccc(Cl)cc1` [Example 99, {(3S,4R)-4-(4-Chloro-phenyl)-1-[1-(1-methoxymethyl-cyclopropanecarbonyl)-piperidine-4-carbonyl]-pyrrolidin-3-yl}-ethyl-carbamic acid 4-fluoro-phenyl ester] showed a pKi of 8.33.
`CCN(C(=O)Oc1ccccc1F)[C@@H]1CN(C(=O)C2CCN(C(=O)c3ccc(C(F)(F)F)cn3)CC2)C[C@H]1c1ccc(Cl)cc1` [Example 86, {(3S,4R)-4-(4-Chloro-phenyl)-1-[1-(5-trifluoromethyl-pyridine-2-carbonyl)-piperidine-4-carbonyl]-pyrrolidin-3-yl}-ethyl-carbamic acid 2-fluoro-phenyl ester] showed a pKi of 7.15.
For `CCN(C(=O)Oc1ccc(F)cc1)[C@@H]1CN(C(=O)C2CCN(c3ccc(F)cn3)CC2)C[C@H]1c1ccc(Cl)c(Cl)c1` [Example 112, [(3S,4R)-4-(3,4-Dichloro-phenyl)-1-(5′-fluoro-3,4,5,6-tetrahydro-2H-[1,2′]bipyridinyl-4-carbonyl)-pyrrolidin-3-yl]-ethyl-carbamic acid 4-fluoro-phenyl ester], the pKi was 9.10.
Work on `CCN(C(=O)Oc1ccc(F)cc1)[C@@H]1CN(C(=O)C2CCN(c3cnc(C#N)cn3)CC2)C[C@H]1c1ccc(Cl)cc1` [Example 17, {(3S,4R)-4-(4-Chloro-phenyl)-1-[1-(5-cyano-pyrazin-2-yl)-piperidine-4-carbonyl]-pyrrolidin-3-yl}-ethyl-carbamic acid 4-fluoro-phenyl ester] yielded a pKi of 8.70.
